Experimental data: patent US6737383B1, “Herbicidal oxadiazolidines” (priority 1999, dated 2004)

Columns and labels:
[1] = system: bamyardgrass; test: Test B flood test barnyardgrass; type: in vivo, Echinochloa crus-galli
Summary of the method: (§1)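 Flood test on plants grown to the 2-leaf stage; treated plants kept in greenhouse twelve to sixteen days, then visually rated against controls on a 0 (no effect) to 10 (complete control) scale.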

[2] = system: smallflower flatsedge; test: Test B flood test smallflower flatsedge; type: in vivo, Cyperus difformis
Summary of the method: as §1

[3] = system: blackgrass; test: Test B pre/postemergence blackgrass; type: in vivo, Alopecurus myosuroides
Summary of the method: (§2)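 Herbicidal effect was estimated by eye on a ten-point control scale after plants spent twelve to sixteen days in a greenhouse following soil or foliar treatment. Foliar sprays targeted plants at one to four leaves; all doses were formulated in a non-phytotoxic solvent with surfactant.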

[4] = system: rape; test: Test B pre/postemergence rape; type: in vivo, Brassica napus
Summary of the method: as §2

[5] = system: surinam grass; test: Test B pre/postemergence surinam grass; type: in vivo, Brachiaria decumbens
Summary of the method: as §2

[6] = system: purple nutsedge; test: Test B pre/postemergence purple nutsedge; type: in vivo, Cyperus rotundus
Summary of the method: as §2

[7] = system: pigweed; test: Test B pre/postemergence pigweed; type: in vivo, Amaranthus retroflexus
Summary of the method: as §2

[8] = system: rice; test: Test B flood test rice; type: in vivo, Oryza sativa
Summary of the method: as §1

[9] = system: crabgrass; test: Test B pre/postemergence crabgrass; type: in vivo, Digitaria sanguinalis
Summary of the method: as §2

[10] = system: wild oat; test: Test B pre/postemergence wild oat; type: in vivo, Avena fatua
Summary of the method: as §2

[11] = system: velvetleaf; test: Test B pre/postemergence velvetleaf; type: in vivo, Abutilon theophrasti
Summary of the method: as §2

[12] = system: duck salad; test: Test B flood test duck salad; type: in vivo, Heteranthera limosa
Summary of the method: as §1

[13] = system: giant foxtail; test: Test B pre/postemergence giant foxtail; type: in vivo, Setaria faberii
Summary of the method: as §2

[14] = system: wheat; test: Test B pre/postemergence wheat; type: in vivo, Triticum aestivum
Summary of the method: as §2

[15] = system: bedstraw; test: Test B pre/postemergence bedstraw; type: in vivo, Galium aparine; details: Preemergence
Summary of the method: as §2

[16] = system: sugar beet; test: Test B pre/postemergence sugar beet; type: in vivo, Beta vulgaris
Summary of the method: as §2

[17] = system: soybean; test: Test B pre/postemergence soybean; type: in vivo, Glycine max
Summary of the method: as §2

[18] = system: cocklebur; test: Test B pre/postemergence cocklebur; type: in vivo, Xanthium strumarium
Summary of the method: as §2

[19] = system: morningglory; test: Test B pre/postemergence morningglory; type: in vivo, Ipomoea hederacea
Summary of the method: as §2

[20] = system: corn; test: Test B pre/postemergence corn; type: in vivo, Zea mays
Summary of the method: as §2

[21] = Rate 62 g/ha, flood test species, Pre-emergence, visual evaluation after twelve to sixteen days
[22] = Rate 125 g/ha, under heading Pre-emergence, flood test species, visual evaluation after twelve to sixteen days
[23] = Rate 250 g/ha, Pre-emergence (flood test species), scale 0 to 10, 0 is no effect, 10 is complete control
[24] = Rate 500 g/ha, Pre-emergence section of Table B, 0 to 10 scale (0 no effect, 10 complete control)
[25] = Postemergence, Rate 62 g/ha, scale of 0 to 10, 0 is no effect, 10 is complete control
[26] = Postemergence, Rate 125 g/ha, scale of 0 to 10 where 0 is no effect and 10 is complete control
[27] = Postemergence, Rate 250 g/ha, scale of 0 to 10, 0 is no effect, 10 is complete control
[28] = Postemergence, Rate 500 g/ha, scale of 0 to 10 where 0 is no effect and 10 is complete control
[29] = Preemergence, Rate 62 g/ha, scale 0 to 10 (0 no effect, 10 complete control)
[30] = Preemergence, Rate 125 g/ha, scale of 0 to 10 where 0 is no effect and 10 is complete control
[31] = Preemergence, Rate 500 g/ha, scale of 0 to 10 where 0 is no effect and 10 is complete control

CC(C)N(C(=O)n1oc(=O)n(CC[N+](=O)[O-])c1=O)c1ccc(F)cc1F [Compound 591]
Plant response rating, Barnyardgrass (0 to 10 scale, 0 is no effect, 10 is complete control) [1, 21]: 0 | Barnyardgrass plant response rating (0 to 10 scale, 0 is no effect, 10 is complete control) [1, 22]: 0 | Barnyardgrass plant response rating [1, 23]: 0 | Barnyardgrass plant response rating [1, 24]: 0 | Plant response rating, S. Flatsedge (0 to 10 scale, 0 is no effect, 10 is complete control) [2, 21]: 0 | S. Flatsedge plant response rating (0 to 10 scale, 0 is no effect, 10 is complete control) [2, 22]: 0 | S. Flatsedge plant response rating [2, 23]: 0 | S. Flatsedge plant response rating [2, 24]: 0 | Blackgrass plant response rating [3, 25]: 0 | Plant response rating, Blackgrass [3, 26]: 0 | Blackgrass plant response rating [3, 27]: 0 | Plant response rating, Blackgrass [3, 28]: 0 | Blackgrass plant response rating [3, 29]: 0 | Blackgrass plant response rating [3, 30]: 0 | Blackgrass plant response rating (0 to 10 scale) ([3]; Preemergence, Rate 250 g/ha): 0 | Blackgrass plant response rating [3, 31]: 0 | Rape plant response rating [4, 25]: 0 | Plant response rating, Rape [4, 26]: 0 | Rape plant response rating [4, 27]: 0 | Plant response rating, Rape [4, 28]: 0 | Rape plant response rating [4, 29]: 0 | Rape plant response rating [4, 30]: 0 | Plant response rating, Rape [4, 31]: 0 | B. signalgrass plant response rating [5, 25]: 0 | Plant response rating, B. signalgrass [5, 26]: 0 | B. signalgrass plant response rating [5, 27]: 0 | Plant response rating, B. signalgrass [5, 28]: 0 | B. signalgrass plant response rating [5, 29]: 0 | B. signalgrass plant response rating [5, 30]: 0 | B. signalgrass plant response rating (0 to 10 scale, 0 is no effect, 10 is complete control) ([5]; Preemergence, Rate 250 g/ha): 0 | B. signalgrass plant response rating [5, 31]: 0 | Nutsedge plant response rating [6, 25]: 0 | Plant response rating, Nutsedge [6, 26]: 0 | Nutsedge plant response rating [6, 27]: 0 | Plant response rating, Nutsedge [6, 28]: 0 | Nutsedge plant response rating [6, 29]: 0 | Nutsedge plant response rating [6, 30]: 0 | Plant response rating, Nutsedge [6, 31]: 0 | Plant response rating, Redroot pigweed [7, 26]: 0 | Redroot pigweed plant response rating [7, 27]: 0 | Plant response rating, Redroot pigweed [7, 28]: 0 | Redroot pigweed plant response rating [7, 29]: 0 | Redroot pigweed plant response rating [7, 30]: 0 | Plant response rating, Redroot pigweed [7, 31]: 0 | Plant response rating, Rice (0 to 10 scale, 0 is no effect, 10 is complete control) [8, 21]: 0 | Rice plant response rating (0 to 10 scale, 0 is no effect, 10 is complete control) [8, 22]: 0 | Rice plant response rating [8, 23]: 0 | Rice plant response rating [8, 24]: 0 | Crabgrass plant response rating [9, 25]: 0 | Plant response rating, Crabgrass [9, 26]: 0 | Crabgrass plant response rating [9, 27]: 0 | Plant response rating, Crabgrass [9, 28]: 0 | Crabgrass plant response rating [9, 29]: 0 | Crabgrass plant response rating [9, 30]: 0 | Plant response rating, Crabgrass [9, 31]: 0 | Plant response rating, Wild oats [10, 26]: 0 | Wild oats plant response rating [10, 27]: 0 | Plant response rating, Wild oats [10, 28]: 0 | Wild oats plant response rating [10, 29]: 0 | Wild oats plant response rating [10, 30]: 0 | Plant response rating, Wild oats [10, 31]: 0 | Plant response rating, Velvetleaf [11, 26]: 0 | Velvetleaf plant response rating [11, 27]: 0 | Plant response rating, Velvetleaf [11, 28]: 0 | Velvetleaf plant response rating [11, 29]: 0 | Velvetleaf plant response rating [11, 30]: 0 | Plant response rating, Velvetleaf [11, 31]: 0 | Plant response rating, Ducksalad (0 to 10 scale, 0 is no effect, 10 is complete control) [12, 21]: 0 | Ducksalad plant response rating (0 to 10 scale, 0 is no effect, 10 is complete control) [12, 22]: 0 | Ducksalad plant response rating [12, 23]: 0 | Ducksalad plant response rating [12, 24]: 0 | Giant foxtail plant response rating [13, 25]: 0 | Plant response rating, Giant foxtail [13, 26]: 0 | Giant foxtail plant response rating [13, 27]: 0 | Plant response rating, Giant foxtail [13, 28]: 0 | Giant foxtail plant response rating [13, 29]: 0 | Giant foxtail plant response rating [13, 30]: 0 | Plant response rating, Giant foxtail [13, 31]: 0 | Plant response rating, Wheat [14, 26]: 0 | Wheat plant response rating [14, 27]: 0 | Plant response rating, Wheat [14, 28]: 0 | Wheat plant response rating [14, 29]: 0 | Wheat plant response rating [14, 30]: 0 | Plant response rating, Wheat [14, 31]: 0 | Bedstraw plant response rating ([15]; Rate 62 g/ha, scale 0 to 10 (0 no effect, 10 complete control)): 0 | Bedstraw plant response rating ([15]; Rate 125 g/ha, scale of 0 to 10 where 0 is no effect and 10 is complete control): 0 | Plant response rating, Sugarbeets [16, 26]: 0 | Sugarbeets plant response rating [16, 27]: 0 | Plant response rating, Sugarbeets [16, 28]: 0 | Sugarbeets plant response rating [16, 29]: 0 | Sugarbeets plant response rating [16, 30]: 0 | Plant response rating, Sugarbeets [16, 31]: 0 | Plant response rating, Soybean [17, 26]: 1 | Soybean plant response rating [17, 27]: 2 | Plant response rating, Soybean [17, 28]: 2 | Soybean plant response rating [17, 29]: 0 | Soybean plant response rating [17, 30]: 0 | Plant response rating, Soybean [17, 31]: 0 | Cocklebur plant response rating [18, 25]: 0 | Plant response rating, Cocklebur [18, 26]: 0 | Cocklebur plant response rating [18, 27]: 0 | Plant response rating, Cocklebur [18, 28]: 0 | Cocklebur plant response rating [18, 29]: 0 | Cocklebur plant response rating [18, 30]: 0 | Cocklebur plant response rating (0 to 10 scale) ([18]; Preemergence, Rate 250 g/ha): 0 | Plant response rating, Cocklebur [18, 31]: 0 | Morningglory plant response rating [19, 25]: 0 | Plant response rating, Morningglory [19, 26]: 0 | Morningglory plant response rating [19, 27]: 2 | Plant response rating, Morningglory [19, 28]: 3 | Morningglory plant response rating [19, 29]: 0 | Morningglory plant response rating [19, 30]: 0 | Plant response rating, Morningglory [19, 31]: 0 | Corn plant response rating [20, 25]: 0 | Plant response rating, Corn [20, 26]: 0 | Corn plant response rating [20, 27]: 0 | Plant response rating, Corn [20, 28]: 0 | Corn plant response rating [20, 29]: 0 | Corn plant response rating [20, 30]: 0 | Corn plant response rating (0 to 10 scale) ([20]; Preemergence, Rate 250 g/ha): 0 | Plant response rating, Corn [20, 31]: 0
